Measured values from ChEMBL document CHEMBL3351501, “Inhibition of pseudolysin and thermolysin by hydroxamate-based MMP inhibitors” (Eur J Med Chem, 2015).

What was measured:
[1] = Inhibition of Bacillus thermoproteolyticus thermolysin using Mca-Arg-Pro-Pro-Gly-Phe-Ser-Ala-Phe-Lys-(Dnp)-OH as substrate after 1 hr by fluorescence assay in presence of Brij-35
Elastase [2] = target: T1, Elastase (Pseudomonas aeruginosa (strain ATCC 15692 / PAO1 / 1C / PRS 101 / LMG12228), UniProt P14756); assay: Inhibition of Pseudomonas aeruginosa pseudolysin using Abz-Ala-Gly-Leu-Ala-p-nitrobenzylamide as substrate after 15 mins
Elastase [3] = target: T1, Elastase; assay: Inhibition of Pseudomonas aeruginosa pseudolysin using Mca-Arg-Pro-Pro-Gly-Phe-Ser-Ala-Phe-Lys-(Dnp)-OH as substrate after 1 hr by fluorescence assay in presence of Brij-35

T1 sequence (P14756 whole entry): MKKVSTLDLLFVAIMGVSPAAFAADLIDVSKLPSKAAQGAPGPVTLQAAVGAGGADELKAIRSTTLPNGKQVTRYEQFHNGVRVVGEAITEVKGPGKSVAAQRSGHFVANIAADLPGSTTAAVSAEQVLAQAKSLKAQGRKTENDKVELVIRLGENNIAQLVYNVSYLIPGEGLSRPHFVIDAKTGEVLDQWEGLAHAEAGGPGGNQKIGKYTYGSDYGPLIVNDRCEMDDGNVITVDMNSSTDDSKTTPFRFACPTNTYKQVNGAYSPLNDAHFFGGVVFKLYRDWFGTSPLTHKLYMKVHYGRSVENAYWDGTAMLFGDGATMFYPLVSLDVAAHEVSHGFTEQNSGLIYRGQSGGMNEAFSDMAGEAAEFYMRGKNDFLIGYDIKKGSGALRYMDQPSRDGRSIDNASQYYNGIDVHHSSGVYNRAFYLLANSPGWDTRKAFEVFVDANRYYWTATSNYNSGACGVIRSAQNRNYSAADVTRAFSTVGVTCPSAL

COc1ccc(S(=O)(=O)N(CC(=O)O)CC(=O)NCCc2ccc(S(N)(=O)=O)cc2)cc1
IC50 [1]: 637 µM
IC50 (Elastase [2]): > 282 µM

COc1ccc(S(=O)(=O)N(CC(=O)NO)CC(=O)NCCc2ccc(S(N)(=O)=O)cc2)cc1
IC50 [1]: 164 µM
IC50 (Elastase [3]): 33 µM
IC50 (Elastase [2]): 15 µM

NS(=O)(=O)c1ccc(CCNC(=O)CN(CC(=O)NO)S(=O)(=O)c2ccc(Oc3ccccc3)cc2)cc1
IC50 [1]: 160 µM
IC50 (Elastase [3]): 276 µM
IC50 (Elastase [2]): 16 µM

NS(=O)(=O)c1ccc(CCNC(=O)CN(CC(=O)NO)S(=O)(=O)c2ccc(-c3ccccc3)cc2)cc1
IC50 [1]: 67 µM
IC50 (Elastase [2]): 31 µM

NS(=O)(=O)c1ccc(CCNC(=O)CN(CC(=O)NO)Cc2ccccc2)cc1
IC50 [1]: 12 µM
IC50 (Elastase [2]): 0.4 µM

O=C(O)CN(CC(=O)NO)Cc1ccc([N+](=O)[O-])cc1
IC50 [1]: 755 µM
IC50 (Elastase [2]): 20 µM

O=C(O)CN(CC(=O)NO)Cc1ccc(-c2ccccc2)cc1
IC50 [1]: > 1000 µM
IC50 (Elastase [2]): > 121 µM

O=C(O)CN(CC(=O)NO)Cc1ccc(Oc2ccccc2)cc1
IC50 [1]: 524 µM
IC50 (Elastase [3]): 430 µM
IC50 (Elastase [2]): > 200 µM

O=C(O)CN(CC(=O)NO)S(=O)(=O)c1ccc(-c2ccccc2)cc1
IC50 [1]: 440 µM
IC50 (Elastase [3]): 241 µM
IC50 (Elastase [2]): > 150 µM

O=C(O)CN(CC(=O)NO)NCCCN1CCN(c2ccccc2)CC1
IC50 [1]: > 1000 µM
IC50 (Elastase [2]): > 330 µM

O=C(CN(CC(=O)NCCCN1CCN(c2ccccc2)CC1)Cc1ccccc1)NO
IC50 [1]: 8 µM
IC50 (Elastase [3]): 2.8 µM
IC50 (Elastase [2]): 6.7 µM

O=C(O)CN(CC(=O)NO)S(=O)(=O)c1ccc(Oc2ccccc2)cc1
IC50 [1]: 114 µM
IC50 (Elastase [3]): 46 µM
IC50 (Elastase [2]): > 186 µM

COc1ccc(S(=O)(=O)N(CC(=O)O)CC(=O)NO)cc1
IC50 [1]: 270 µM
IC50 (Elastase [3]): 153 µM
IC50 (Elastase [2]): 169 µM

CC(C)[C@H](C(=O)NO)N(CC(=O)O)S(=O)(=O)c1ccc(Oc2ccccc2)cc1
IC50 [1]: > 1000 µM
IC50 (Elastase [3]): 336 µM
IC50 (Elastase [2]): 82 µM
